This passage reports KI (inactivation) results from publication PMC4624270 (Journal of the American Chemical Society, 2015).

This experiment deals with PikDH2 (PikKR2-DH2 didomain) (Streptomyces venezuelae, UniProt Q9ZGI5). In words: time-dependent inactivation, Kitz-Wilson plot. The format is biochemical. To be noted: read-out: KI; covalent; mechanism-based irreversible inhibitor; substrate 2a; 10 to 40 μM inhibitor.
Chain of PikDH2 (PikKR2-DH2 didomain) (Q9ZGI5 3579-4365): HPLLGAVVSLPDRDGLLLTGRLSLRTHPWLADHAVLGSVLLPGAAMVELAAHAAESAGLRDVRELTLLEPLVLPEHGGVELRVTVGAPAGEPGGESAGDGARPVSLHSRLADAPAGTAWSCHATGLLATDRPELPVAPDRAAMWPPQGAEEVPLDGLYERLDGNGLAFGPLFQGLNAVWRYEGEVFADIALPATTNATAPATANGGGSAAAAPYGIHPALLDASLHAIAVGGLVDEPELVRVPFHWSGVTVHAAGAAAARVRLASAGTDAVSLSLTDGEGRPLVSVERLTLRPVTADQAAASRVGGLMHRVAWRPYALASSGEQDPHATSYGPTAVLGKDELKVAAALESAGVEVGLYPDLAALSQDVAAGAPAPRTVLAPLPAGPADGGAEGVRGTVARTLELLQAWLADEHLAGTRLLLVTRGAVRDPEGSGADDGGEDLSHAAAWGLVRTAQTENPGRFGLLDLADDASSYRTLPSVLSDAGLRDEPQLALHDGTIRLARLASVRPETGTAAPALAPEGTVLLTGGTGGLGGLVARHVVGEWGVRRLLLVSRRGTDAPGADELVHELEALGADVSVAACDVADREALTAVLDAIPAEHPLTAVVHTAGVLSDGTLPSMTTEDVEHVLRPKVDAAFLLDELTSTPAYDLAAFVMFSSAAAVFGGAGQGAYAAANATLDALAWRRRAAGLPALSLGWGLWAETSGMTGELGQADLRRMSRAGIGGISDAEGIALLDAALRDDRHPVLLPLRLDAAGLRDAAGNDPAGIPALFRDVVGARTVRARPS

In the case of `CCCCCCC#CCC(=O)SCCNC(C)=O` [compound 6, 3-Decynoyl-N-acetylcysteamine], the KI (inactivation) is 156 ± 34 µM.
